SMILES strings stand for the structures. pIC50, pKi: −log10 of the molar value. Values joined by “and” are separate entries in the source; they are usually repeats but may differ in a detail not shown here. Equal entries are not always repeated. “Also recorded” adds a separate entry of the source. Marks after values point to notes of the source that are not given here.

In data set [1] the target is 5-HT2B (h) (Homo sapiens, UniProt P41595). Briefly: 5-HT2B (h) (agonist radioligand) binding assay.
Sequence of 5-HT2B (h) (P41595 whole entry): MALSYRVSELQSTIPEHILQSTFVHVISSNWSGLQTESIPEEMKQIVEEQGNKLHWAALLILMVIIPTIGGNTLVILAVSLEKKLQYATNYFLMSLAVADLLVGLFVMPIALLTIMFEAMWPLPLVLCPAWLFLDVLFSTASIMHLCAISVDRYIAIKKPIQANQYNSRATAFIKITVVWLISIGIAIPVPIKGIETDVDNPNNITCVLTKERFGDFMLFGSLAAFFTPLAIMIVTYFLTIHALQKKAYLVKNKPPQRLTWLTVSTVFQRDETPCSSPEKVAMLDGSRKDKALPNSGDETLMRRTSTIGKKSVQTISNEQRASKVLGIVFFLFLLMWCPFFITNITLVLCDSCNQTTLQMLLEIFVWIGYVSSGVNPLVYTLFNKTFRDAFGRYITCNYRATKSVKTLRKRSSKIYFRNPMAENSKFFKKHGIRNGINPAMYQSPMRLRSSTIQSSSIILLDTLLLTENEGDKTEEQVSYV
For data set [2], the system named is rat hippocampal cultures. Briefly: cells. In kind it is cell-based. As to conditions: for Neuronal viability (CFDA), % of Control / Neuronal viability (CFDA), Mean / Neuronal viability (CFDA), individual values: 5 hours; for EC50 ± SE / Full Efficacy Concentration / No effect Concentration: Example 13, CFDA, 10 μM hydrogen peroxide, 0.1 to 300 μM tested; for EC50 ± SE / Full Efficacy Concentration / No effect Concentration / % of Control (CFDA) / CFDA signal, Mean: 5 h; for % of Control (CFDA) / CFDA signal, Mean: CBD 10 μM + 10 μM hydrogen peroxide.

For data set [3], the system named is rat hippocampal cultures. Briefly: Propidium iodide cell death assay, protection from hydrogen peroxide toxicity. In kind it is cell-based. As to conditions: for Cell death (Propidium Iodide), % of Control / Cell death (Propidium Iodide), Mean / Cell death (Propidium Iodide), individual values: 5 hours; for EC50 ± SE / Full Efficacy Concentration / No effect Concentration: Example 13, 0.1 to 300 μM tested; for EC50 ± SE / Full Efficacy Concentration / No effect Concentration / protection from cell death: PI, 10 μM hydrogen peroxide; for EC50 ± SE / Full Efficacy Concentration / No effect Concentration / protection from cell death / % of Control (PI) / PI signal, replicate wells: 5 h; for protection from cell death: 0.1 to 300 μM; for % of Control (PI) / PI signal, replicate wells: CBD 10 μM + 10 μM hydrogen peroxide.

For data set [4], the target named is T1, MT3 (ML2) (Mesocricetus auratus, UniProt A0ABM2YAB8).
T1 sequence (A0ABM2YAB8 1-231): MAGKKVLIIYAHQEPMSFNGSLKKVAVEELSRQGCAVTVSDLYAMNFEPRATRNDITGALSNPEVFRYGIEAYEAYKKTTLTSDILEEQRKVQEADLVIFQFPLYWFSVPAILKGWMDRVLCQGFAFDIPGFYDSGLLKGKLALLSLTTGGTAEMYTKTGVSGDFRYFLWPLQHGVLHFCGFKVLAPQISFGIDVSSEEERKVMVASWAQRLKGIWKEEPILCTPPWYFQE
Description: MT3 (ML2) (agonist radioligand) binding assay. The note with it: MT3 (ML2) (agonist radioligand).

Data set [5] deals with T2, PR (h) (Homo sapiens, UniProt P06401).
T2 construct: T47D cells (cytosol)
T2 sequence (P06401 679-933): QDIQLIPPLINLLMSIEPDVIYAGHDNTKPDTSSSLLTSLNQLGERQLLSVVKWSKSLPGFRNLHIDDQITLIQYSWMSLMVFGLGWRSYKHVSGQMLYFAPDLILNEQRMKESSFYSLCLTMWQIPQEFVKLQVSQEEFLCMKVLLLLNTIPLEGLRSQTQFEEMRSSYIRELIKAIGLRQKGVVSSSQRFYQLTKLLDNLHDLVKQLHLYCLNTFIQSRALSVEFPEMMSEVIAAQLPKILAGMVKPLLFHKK
Description: PR (h) (agonist radioligand) binding assay.

Where [6] appears, read: 0.1 μM + 10 μM hydrogen peroxide, DMSO.
The mark [7] stands for this setting: 1 μM + 10 μM hydrogen peroxide, DMSO.
Setting [8] is: 10 μM + 10 μM hydrogen peroxide, DMSO.
[9] abbreviates: 100 μM + 10 μM hydrogen peroxide, DMSO.
[10] abbreviates: 300 μM + 10 μM hydrogen peroxide, DMSO.
Setting [11] is: Experiment 9 (vehicle plates, Tables 17 and 18).
[12] abbreviates: positive control CBD + HP 10 μM.
Setting [13] is: Experiment 10 (vehicle plates, Tables 19 and 20).

In data set [1], `COc1cc(CC(C)N)c(OC)cc1I` (racemic) [(±)DO1] had a pIC50 of 8.16 and a nH of 0.9.

With `CC(C)(O)c1nc2ccccc2nc1N` [ALD2], the “Neuronal viability (CFDA), % of Control” value came to 67 ± 3% in data set [2] (setting [6]); 67 ± 4% in data set [2] (setting [7]); 71 ± 5% in data set [2] (setting [8]); 68 ± 4% in data set [2] (setting [9]); 72 ± 4% in data set [2] (setting [10]). The “Neuronal viability (CFDA), Mean” value in data set [2] (setting [6]) is on record as 38243; in data set [2] (setting [7]), 38073; in data set [2] (setting [8]) it was 40512; in data set [2] (setting [9]), 38674; in data set [2] (setting [10]), 41274. In addition, the “Neuronal viability (CFDA), individual values” in data set [2] (setting [6]) was 40839 (3×) and 34813 and 33885. Moreover, the “Cell death (Propidium Iodide), % of Control” value (“Cell death … % of Control” below) in data set [3] (setting [6]) turned out to be 172 ± 5%; in data set [3] (setting [7]) it was 166 ± 9%; in data set [3] (setting [8]), 167 ± 13%; in data set [3] (setting [9]), 157 ± 8%; in data set [3] (setting [10]), 182 ± 8%. The “Cell death (Propidium Iodide), Mean” value in data set [3] (setting [6]) is reported as 274; in data set [3] (setting [7]) it was 264; in data set [3] (setting [8]), 266; in data set [3] (setting [9]), 249; in data set [3] (setting [10]) it was 290. In addition, the “Cell death (Propidium Iodide), individual values” (from here on “Cell death … individual values”) in data set [3] (setting [6]) was 258 and 294 (2×) and 259 and 266; in data set [3] (setting [7]), 229 and 294 and 258 and 242 and 298; in data set [3] (setting [8]) it was 293 and 329 and 258 and 225 (2×); in data set [3] (setting [9]), 225 (2×) and 258 and 242 and 294; in data set [3] (setting [10]) it was 302 and 294 (2×) and 320 and 242.

Consider `CC(C)(O)c1nc2ncccc2cc1N` [ALD5], for which the “Neuronal viability (CFDA), % of Control” value in data set [2] (setting [6]) was 69 ± 1%; in data set [2] (setting [7]), 66 ± 3%; in data set [2] (setting [8]), 65 ± 3%; in data set [2] (setting [9]), 66 ± 4%; in data set [2] (setting [10]), 74 ± 1%. Besides, the “Neuronal viability (CFDA), Mean” value in data set [2] (setting [6]) is 38942; in data set [2] (setting [7]), 37447; in data set [2] (setting [8]), 36940; in data set [2] (setting [9]), 37605; in data set [2] (setting [10]) it was 42249. For the same compound, the “Cell death … % of Control” value in data set [3] (setting [6]) was 202 ± 15%; in data set [3] (setting [7]), 196 ± 1%; in data set [3] (setting [8]), 191 ± 11%; in data set [3] (setting [9]), 181 ± 7%; in data set [3] (setting [10]), 205 ± 8%. For the same compound, the “Cell death (Propidium Iodide), Mean” value is 301 in data set [3] (setting [6]); 292 in data set [3] (setting [7]); 285 in data set [3] (setting [8]); 269 in data set [3] (setting [9]); 305 in data set [3] (setting [10]). In addition, the “Cell death … individual values” was 225 and 325 and 294 (2×) and 366 in data set [3] (setting [6]); 285 and 294 (4×) in data set [3] (setting [7]); 294 (3×) and 320 and 225 in data set [3] (setting [8]); 250 (2×) and 294 (2×) and 255 in data set [3] (setting [9]); 294 (3×) and 293 and 352 in data set [3] (setting [10]).

Take `[2H]C([2H])([2H])C(O)(c1nc2ccc(Cl)cc2cc1N)C([2H])([2H])[2H]` [ALD6]: the “Neuronal viability (CFDA), % of Control” value in data set [2] (setting [6]) was determined as 59 ± 3%; in data set [2] (setting [7]), 65 ± 5%; in data set [2] (setting [8]), 83 ± 4%; in data set [2] (setting [9]), 98 ± 4%; in data set [2] (setting [10]), 98 ± 4%. For the same compound, the “Neuronal viability (CFDA), Mean” value in data set [2] (setting [6]) is on record as 34394; in data set [2] (setting [7]), 38055; in data set [2] (setting [8]), 48055*; in data set [2] (setting [9]), 57123*; in data set [2] (setting [10]), 56976*. In data set [2] (setting [10]), the “Neuronal viability (CFDA), individual values” was 53184 (3×) and 59551 and 65778. Moreover, the “Cell death … % of Control” value in data set [3] (setting [6]) is 165 ± 15%; in data set [3] (setting [7]), 120 ± 5%; in data set [3] (setting [8]), 107 ± 5%; in data set [3] (setting [9]), 108 ± 7%; in data set [3] (setting [10]), 107 ± 6%. For the same compound, the “Cell death (Propidium Iodide), Mean” value is reported as 273 in data set [3] (setting [6]); 198* in data set [3] (setting [7]); 176* in data set [3] (setting [8]); 178* in data set [3] (setting [9]); 176* in data set [3] (setting [10]). In addition, the “Cell death … individual values” in data set [3] (setting [6]) was 294 and 242 and 356 and 225 and 250; in data set [3] (setting [7]) it was 223 and 183 (2×) and 189 and 214; in data set [3] (setting [8]) it was 189 (2×) and 139 and 179 and 183; in data set [3] (setting [9]), 206 and 189 and 135 and 167 and 193; in data set [3] (setting [10]) it was 189 (2×) and 147 and 197 and 159.

As for `CC(C)(O)c1nc2ccccc2nc1N` [ALD-2], in data set [2] (DMSO), the “EC50 ± SE” value is on record as “Inactive”, the “Full Efficacy Concentration” value is on record as “Inactive” and the “No effect Concentration” value is given as “Inactive”. In addition, in data set [3] (DMSO), the “EC50 ± SE” value is “Inactive”, the “Full Efficacy Concentration” value is recorded as “Inactive”, the “No effect Concentration” value is listed as “Inactive” and the “protection from cell death” value is reported as “no statistically significant protection from cell death; also recorded: did not produce statistically significant protection from cell death”.

`CC(C)(O)c1nc2ncccc2cc1N` [ALD-5]: in data set [2] (DMSO), the “EC50 ± SE” value is reported as “Inactive”, the “Full Efficacy Concentration” value is reported as “Inactive” and the “No effect Concentration” value is “Inactive”. In addition, in data set [3] (DMSO), the “EC50 ± SE” value is reported as “Inactive”, the “Full Efficacy Concentration” value is “Inactive”, the “No effect Concentration” value was “Inactive” and the “protection from cell death” value is “no statistically significant protection from cell death; also recorded: did not produce statistically significant protection from cell death”.

Consider `C=C(C)[C@@H]1CCC(C)=C[C@H]1c1c(O)cc(CCCCC)cc1O` [CBD, cannabidiol, reference compound], for which the “% of Control (CFDA)” value in data set [2] (setting [11]) was determined as 99 ± 7%; in data set [2] (Table 9 plate), 105 ± 4%; in data set [2] (Table 11 plate) it was 103 ± 5%; in data set [2] (Table 13 plate), 102 ± 12%; in data set [2] (Table 15 plate), 100 ± 7%. Besides, the “CFDA signal, Mean” value in data set [2] (setting [11]) was 43543*; in data set [2] (Table 9 plate) it was 48894*; in data set [2] (Table 11 plate), 44366*; in data set [2] (Table 13 plate), 40858*; in data set [2] (Table 15 plate) it was 41741*. For the same compound, in data set [2] (setting [12]), the “Neuronal viability (CFDA), % of Control” value was 101 ± 3% and 97 ± 4%. Moreover, in data set [2] (setting [12]), the “Neuronal viability (CFDA), Mean” value was 57221* and 57590* and 55059*. Also, the “% of Control (PI)” value is given as 112 ± 7% in data set [3] (setting [13]); 97 ± 9% in data set [3] (Table 10 plate); 102 ± 11% in data set [3] (Table 12 plate); 108 ± 11% in data set [3] (Table 14 plate); 103 ± 8% in data set [3] (Table 16 plate). Also, the “PI signal, replicate wells” value in data set [3] (setting [13]) was 184 and 156 and 180; in data set [3] (Table 10 plate), 117 and 180 and 121 and 192; in data set [3] (Table 12 plate) it was 125 and 117 (2×) and 180 (2×); in data set [3] (Table 14 plate), 121 and 200 and 180 and 117; in data set [3] (Table 16 plate), 129 and 184 and 180 and 117. Further, the “Cell death … % of Control” value in data set [3] (setting [12]) was 93 ± 9% and 91 ± 10% and 91 ± 8%. Besides, the “Cell death (Propidium Iodide), Mean” value in data set [3] (setting [12]) was 154* and 136* and 145*. The “Cell death … individual values” in data set [3] (setting [12]) is 171 and 123 and 197 and 119 and 83 and 147 and 164 and 139 and 104 and 175.

In data set [4], `COc1ccc2[nH]cc(CCNC(C)=O)c2c1` [melatonin] had a pIC50 of 7.14, a pKi of 7.15 and a nH of 0.8.

For `CCC(=O)[C@@]1(C)CC[C@H]2[C@@H]3CCC4=CC(=O)CCC4=C3CC[C@@]21C` [promegestone], in data set [5], the pIC50 is 9.33, the pKi is 9.42 and the nH stood at 1.6.

What is called pIC50 is the IC50 on a negative log10 scale, so that one unit is a factor of ten. The low end stands for a high IC50, the high end for a low IC50. Usually pKi stands for the negative decadic logarithm of the Ki, by convention in mol/L.

The record behind these values is patent US12240816B2, “Deuterated compounds and uses thereof” (Aldeyra Therapeutics, Inc., priority 2015, dated 2025).
